The text below walks through data of patent US8822449B2, “Substituted aminoindanes and analogs thereof, and the pharmaceutical use thereof” (Sanofi, priority 2008, dated 2014).

Bounds are passed on as bounds.

The target in the assay is T1, sodium-proton exchanger of subtype 3 (NHE3) (Homo sapiens, UniProt P48764).
T1 construct: expressed in transfected cells
T1 sequence (P48764 26-834): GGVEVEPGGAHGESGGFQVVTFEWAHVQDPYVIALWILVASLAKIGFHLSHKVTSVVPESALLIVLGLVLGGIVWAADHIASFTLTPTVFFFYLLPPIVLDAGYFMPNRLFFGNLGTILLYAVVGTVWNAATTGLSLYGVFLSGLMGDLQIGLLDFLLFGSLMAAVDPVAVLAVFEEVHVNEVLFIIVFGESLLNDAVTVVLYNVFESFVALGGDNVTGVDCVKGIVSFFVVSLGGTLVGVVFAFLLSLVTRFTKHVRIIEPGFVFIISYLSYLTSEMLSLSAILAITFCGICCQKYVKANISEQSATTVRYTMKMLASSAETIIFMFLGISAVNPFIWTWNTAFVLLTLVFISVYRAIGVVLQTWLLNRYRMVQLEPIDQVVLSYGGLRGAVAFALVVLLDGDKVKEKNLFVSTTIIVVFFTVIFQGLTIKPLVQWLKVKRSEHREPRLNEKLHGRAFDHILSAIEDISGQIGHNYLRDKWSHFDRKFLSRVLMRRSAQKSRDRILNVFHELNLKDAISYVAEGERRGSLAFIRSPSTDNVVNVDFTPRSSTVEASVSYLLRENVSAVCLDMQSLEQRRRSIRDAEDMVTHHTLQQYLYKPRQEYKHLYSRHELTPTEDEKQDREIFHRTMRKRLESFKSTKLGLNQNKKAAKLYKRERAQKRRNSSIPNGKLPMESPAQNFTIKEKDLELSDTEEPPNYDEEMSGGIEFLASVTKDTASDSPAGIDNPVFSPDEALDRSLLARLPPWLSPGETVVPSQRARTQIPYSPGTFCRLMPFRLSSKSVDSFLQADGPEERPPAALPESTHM
As to the kind of experiment: Recovery of intracellular pH (pHi) after acidification in LAP1 cells stably expressing NHE3 (BCECF fluorescence, FLIPR). Type of assay: cell-based. As to conditions: LAP1 cells stably expressing NHE3; pH recovery after acidification; range 1 is % inhibition at 10 μM; read-out: Activity range (inhibitory effect on NHE3).
With `CC(=O)Nc1cccc(O[C@H]2c3ccccc3CC[C@@H]2N2CCC[C@H](N)C2)c1` (racemic) [Example 684, N-{3-[rac-trans-(1,2)-2-((S)-3-aminopiperidin-1-yl)-1,2,3,4-tetrahydronaphthalen-1-yloxy]phenyl}acetamide], the inhibition at 10 µM is 20 to 50%.

Consider `NCC1CCN([C@@H]2Cc3ccccc3[C@H]2Oc2ccc3c(c2)OCO3)C1` (mixture of isomers) [Example 621, C-{1-[rac-trans-(1,2)-1-(benzo[1,3]dioxol-5-yloxy)indan-2-yl]pyrrolidin-3-yl}methylamine], for which the IC50 was 1000 to 10000 nM.

For the molecule `CC(=O)Nc1ccc(OC2c3ccccc3CC2N2CCCC2)cc1` (racemic) [Example 666, N-[4-(rac-trans-(1,2)-2-pyrrolidin-1-ylindan-1-yloxy)phenyl]acetamide], the IC50 was 1000 to 10000 nM.

Regarding `C[C@@H]1CN([C@H]2Cc3c(Cl)cc(Cl)cc3[C@@H]2Oc2ccc(S(C)(=O)=O)cc2)CCN1` [Example 101, (R)-1-[trans-(1S,2S)-4,6-dichloro-1-(4-methanesulfonylphenoxy)indan-2-yl]-3-methylpiperazine], the IC50 was below 1000 nM.

Take `N[C@H]1CCCN([C@H]2CCc3ccccc3[C@@H]2Oc2ccc(Cl)cc2)C1` (racemic) [Example 175, (S)-1-[rac-trans-(1,2)-1-(4-chlorophenoxy)-1,2,3,4-tetrahydronaphthalen-2-yl]piperidin-3-ylamine]: the inhibition at 10 µM lay within 20 to 50%.

Take `N#Cc1ccc(O[C@H]2c3ccccc3C[C@@H]2N2CCCC2)cc1` (racemic) [Example 468, 4-(rac-trans-(1,2)-2-pyrrolidin-1-ylindan-1-yloxy)benzonitrile]: the IC50 is 1000 to 10000 nM.

`N[C@H]1CCCN([C@@H]2Cc3ccccc3[C@H]2Oc2cccc(CN3CCCCC3)c2)C1` (racemic) [Example 170, (S)-1-[rac-trans-(1,2)-1-(3-piperidin-1-ylmethylphenoxy)indan-2-yl]piperidin-3-ylamine]: the IC50 is 1000 to 10000 nM.

Turning to `COC(=O)c1ccc(O[C@H]2c3ccccc3CC[C@@H]2N2CCC[C@@H](N)C2)c(Cl)c1` (racemic) [Example 513, 4-[rac-trans-(1,2)-2-((R)-3-aminopiperidin-1-yl)-1,2,3,4-tetrahydronaphthalen-1-yloxy]-3-chlorobenzoic acid methyl ester], the inhibition at 10 µM fell in the range of 20 to 50%.

Regarding `CS(=O)(=O)c1ccc(O[C@H]2c3cc(Cl)cc(Cl)c3C[C@@H]2N2CCC[C@H]2CO)cc1` [Example 228, {(S)-1-[trans-(1S,2S)-4,6-dichloro-1-(4-methanesulfonylphenoxy)indan-2-yl]pyrrolidin-2-yl}methanol], the IC50 lay within 1000 to 10000 nM.

Take `CC(C)[C@H]1COC(=O)N1c1ccc(Cl)c(O[C@H]2c3cc(Cl)cc(F)c3C[C@@H]2N2CC[C@@H](O)C2)c1` [Example 211, (S)-3-{4-chloro-3-[(1S,2S)-6-chloro-4-fluoro-2((R)-3-hydroxypyrrolidin-1-yl)indan-1-yloxy]phenyl}-4-isopropyloxazolidin-2-one]: the inhibition at 10 µM lay within 20 to 50%.

Take `NC(=O)c1ccc(O[C@@H]2c3ccccc3C[C@H]2N2CCC[C@@H](N)C2)cc1` (racemic) [Example 525, 4-[rac-trans-(1,2)-2-((R)-3-aminopiperidin-1-yl)indan-1-yloxy]benzamide]: the IC50 was in the range of 1000 to 10000 nM.

Take `COCCc1ccc(O[C@H]2c3ccccc3CC[C@@H]2N2CCC[C@@H](N)C2)cc1` (racemic) [Example 115, (R)-1-{rac-trans-(1,2)-1-[4-(2-methoxyethyl)phenoxy]-1,2,3,4-tetrahydronaphthalen-2-yl}piperidin-3-ylamine]: the inhibition at 10 µM lay within 20 to 50%.

With `Cc1cn(-c2ccc(O[C@H]3c4cc(Cl)cc(Cl)c4C[C@@H]3N3CC[C@@H](O)C3)c(F)c2)c(C)n1` [Example 727, (R)-1-{trans-(1S,2S)-4,6-Dichloro-1-[4-(2,4-dimethyl-imidazol-1-yl)-2-fluoro-phenoxy]-indan-2-yl}-pyrrolidin-3-ol], the IC50 was below 1000 nM.

`CN1CCCN([C@H]2Cc3c(Cl)cc(Cl)cc3[C@@H]2Oc2ccc(S(C)(=O)=O)cc2)CC1` [Example 305, 1-[trans-(1S,2S)-4,6-dichloro-1-(4-methanesulfonylphenoxy)indan-2-yl]-4-methyl-[1,4]diazepane]: the IC50 was below 1000 nM.

On to `CS(=O)(=O)c1ccc(N[C@H]2c3cc(Cl)cc(Cl)c3C[C@@H]2N2CC[C@@H](O)C2)cc1` [Example 26, (R)-1-[(1S,2S)-4,6-dichloro-1-(4-methanesulfonylphenylamino)indan-2-yl]pyrrolidin-3-ol], for which the IC50 lay in the range of 1000 to 10000 nM.

Turning to `CC(=O)Nc1ccc(S[C@H]2c3cc(Cl)cc(Cl)c3C[C@@H]2N2CC[C@@H](O)C2)cc1` [Example 699, N-{4-[(1S,2S)-4,6-dichloro-2-((R)-3-hydroxypyrrolidin-1-yl)indan-1-ylsulfanyl]phenyl}acetamide], the IC50 fell in the range of 1000 to 10000 nM.

For `N[C@@H]1CCCN([C@H]2Cc3c(Cl)cc(Cl)cc3[C@@H]2Oc2ccc(-n3ccnc3)cc2)C1` [Example 98, (R)-1-[trans-(1S,2S)-4,6-dichloro-1-(4-imidazol-1-ylphenoxy)indan-2-yl]piperidin-3-ylamine], the IC50 was below 1000 nM.

On to `N[C@H]1CCCN([C@H]2CCc3ccccc3[C@@H]2Oc2cccc(F)c2)C1` (racemic) [Example 168, (S)-1-[rac-trans-(1,2)-1-(3-fluorophenoxy)-1,2,3,4-tetrahydronaphthalen-2-yl]piperidin-3-ylamine], for which the inhibition at 10 µM lay within 20 to 50%.

As for `Cc1cc(C#N)cc(C)c1O[C@H]1c2ccccc2CC[C@@H]1N1CCC[C@@H](N)C1` (racemic) [Example 511, 4-[rac-trans-(1,2)-2-((R)-3-aminopiperidin-1-yl)-1,2,3,4-tetrahydronaphthalen-1-yloxy]-3,5-dimethylbenzonitrile], the inhibition at 10 µM lay within 20 to 50%.

For the molecule `N[C@@H]1CCCN([C@H]2CCc3ccccc3[C@@H]2Oc2ccc(Cl)cc2-c2cc[nH]n2)C1` (racemic) [Example 119, (R)-1-{rac-trans-(1,2)-1-[4-chloro-2-(1H-pyrazol-3-yl)phenoxy]-1,2,3,4-tetrahydronaphthalen-2-yl}piperidin-3-ylamine], the IC50 is below 1000 nM.

As to `COc1cc(Cl)cc(O[C@@H]2c3ccccc3C[C@H]2N2CCC(CN)CC2)c1` (racemic) [Example 612, C-{1-[rac-trans-(1,2)-1-(3-chloro-5-methoxyphenoxy)indan-2-yl]piperidin-4-yl}methylamine], the IC50 is 1000 to 10000 nM.

For the molecule `O=C1CNC(=O)N1c1ccc(O[C@H]2c3cc(Cl)cc(Cl)c3C[C@@H]2N2CC[C@@H](O)C2)cc1` [Example 426, 3-{4-[(1S,2S)-4,6-dichloro-2-((R)-3-hydroxypyrrolidin-1-yl)indan-1-yloxy]phenyl}imidazolidine-2,4-dione], the IC50 is below 1000 nM.

With `N#Cc1ccc(O[C@H]2c3ccccc3CC[C@@H]2N2CCC[C@H](N)C2)c(Cl)c1` (racemic) [Example 532, 4-[rac-trans-(1,2)-2-((S)-3-aminopiperidin-1-yl)-1,2,3,4-tetrahydronaphthalen-1-yloxy]-3-chlorobenzonitrile], the IC50 lay within 1000 to 10000 nM.

`O=C1CCCN1c1cccc(O[C@H]2c3cc(Cl)cc(Cl)c3C[C@@H]2N2CC[C@@H](O)C2)c1` [Example 315, 1-{3-[(1S,2S)-4,6-dichloro-2-((R)-3-hydroxypyrrolidin-1-yl)indan-1-yloxy]phenyl}pyrrolidin-2-one]: the IC50 is 1000 to 10000 nM.

Consider `NC1CCN([C@@H]2Cc3ccccc3[C@H]2Oc2ccc(NC(=O)OCc3ccccc3)cc2)C1` (mixture of isomers) [Example 241, {4-[rac-trans-(1,2)-2-(3-aminopyrrolidin-1-yl)indan-1-yloxy]phenyl}carbamic acid benzyl ester], for which the IC50 is 1000 to 10000 nM.

Turning to `CS(=O)(=O)c1ccc(O[C@H]2c3cc(Cl)c(Cl)cc3C[C@@H]2N2CCCNCC2)cc1` (racemic) [Example 286, 1-[rac-trans-(1,2)-5,6-dichloro-1-(4-methanesulfonylphenoxy)indan-2-yl]-[1,4]diazepane], the IC50 lay within 1000 to 10000 nM.

Turning to `Fc1ccc(O[C@H]2c3ccccc3CC[C@@H]2N2CCOCC2)c(-c2ccno2)c1` (racemic) [Example 507, 4-[rac-trans-(1,2)-1-(4-fluoro-2-isoxazol-5-ylphenoxy)-1,2,3,4-tetrahydronaphthalen-2-yl]morpholine], the inhibition at 10 µM lay within 20 to 50%.

For `NS(=O)(=O)c1ccc(OC2c3ccccc3CC2N2CC[C@@H](O)C2)cc1` (mixture of isomers) [Example 527, 4-[rac-trans-(1,2)-2-((R)-3-Hydroxypyrrolidin-1-yl)indan-1-yloxy]benzenesulfonamide], the IC50 fell in the range of 1000 to 10000 nM.

For the molecule `N[C@@H]1CCCN([C@H]2Cc3c(Cl)cc(Cl)cc3[C@@H]2Oc2ccc(F)c3cccnc23)C1` [Example 27, (R)-1-[(1S,2S)-4,6-dichloro-1-(5-fluoroquinolin-8-yloxy)indan-2-yl]piperidin-3-ylamine], the IC50 was below 1000 nM.
